Experimental data: patent US20080226565A1, “Anticariogenic Proteins & Peptides & Saccharides” (priority 2004, published 2008)

Tests used:
[1] = system: anaerobes isolated from the oral cavity; assay: Susceptibility (MIC), agar dilution, anaerobes from the oral cavity; type: cell-based, anaerobic bacteria; details: for activity against anaerobes: explored range 0.2 to 3.5 mg/ml
Experimental: (§1) The investigations included more than hundred strains isolated from the oral cavity: : anaerobes, microaerophilic bacteria, aerobes, Streptococcus spp. and yeast like fungi. The microorganisms were isolated from saliva, mucosal membrane, gingival pockets and caries decay. The susceptibility (MIC) of bacteria and yeastlike fungi were determined by means of plate dilution technique in agar.
(§2) The investigated samples were dissolved in sterile distilled water (immediately before the experiment) to obtain the following concentrations: 3.5, 1.7, 0.8, 0.4 and 0.2 mg/ml and were added into appropriate agar. The plates were inoculated using a Steers multipoint inoculator. Inoculum contained 10^6 CFU/spot. In each experimental series, the growth of strains on the culture medium without the compounds investigated was checked. The concentration at which no macroscopic growth of the microbes was observed on the medium was regarded as the lowest concentration, inhibiting the growth of microbes (MIC). The examinations of the susceptibility of microbes to the peptides were carried out twice.
(§3) Anaerobes. The susceptibility of bacteria was determined by means of the agar dilution methods with Brucella agar supplemented with 5% defibrinated sheep's blood, menadione and hemin. Sample solutions with concentrations from of 3.5-0.2 mg/ml were added into agar. The agar plate without investigated samples was included as a bacterial growth control. The inoculum of 10^6 CFU/ml was applied to the agar plates with Steers replicator. Incubation was performed for 48 hrs at 37° C. (310° K) in anaerobic jars containing a mixture of 10% CO2, 10% H2 and 80% N2, in the presence of palladium catalyst and indicator of anaerobiosis. Microaerophilic bacteria. The susceptibility of bacteria was determined by means of the agar dilution methods with Brucella agar supplemented with 5% sheep's blood. Samples solutions with concentrations from of 3.5- 0.2 mg/ml were added into agar. The agar plate without investigated samples was included as a bacterial growth control. The inoculum of 10^6 CFU/ml was applied to the agar plates with Steers replicator. The incubation was performed at 37° C. in anaerobic jars with Campy Pak (bio Merieux) for 48 hours. Streptococcus spp. The susceptibility of bacteria was determined by means of the agar dilution methods with Mueller-Hinton agar supplemented with 5% sheep's blood. Samples solutions with concentrations from of 3.5- 0.2 mg/ml were added into agar. The agar plate without investigated samples was included as a bacterial growth control. The inoculum of 10^6 CFU/ml was applied to the agar plates with Steers replicator. Incubation was performed for 24 hrs at 37° C. (310° K) in anaerobic jars containing a mixture of 10% CO2 and 90% N2. Aerobes. The susceptibility to investigated samples was determined by means of the plate dilution technique in Mueller-Hinton agar. Samples solutions with concentrations from of 3.5- 0.2 mg/ml were added into agar. The agar plate without investigated samples was included as a bacterial growth control. The inoculum of 10^6 CFU/ml was applied to the agar plates with Steers replicator. Plates were incubated for 24 hrs in 37° C. under aerobic conditions. Yeast like fungi. The susceptibility of fungi to investigated samples was determined by means of the plate dilution technique in Sabouraud's agar. Samples solutions with concentrations from of 3.5- 0.2 mg/ml were added into agar. […]

[2] = system: aerobes isolated from the oral cavity; assay: Susceptibility (MIC), agar dilution, aerobes from the oral cavity; type: cell-based, aerobic bacteria; details: for activity against aerobes: explored range 0.2 to 3.5 mg/ml
Experimental: as §1, §2
as §3, with “control. […]” for “control. The inoculum of 10^6 CFU/ml was applied to the agar plates with Steers replicator. Incubation was performed for 24 hrs at 37° C. (310° K) in anaerobic jars containing a mixture of 10% CO2 and 90% N2. Aerobes.”, “agar. […]” for “agar. Samples solutions with concentrations from of 3.5- 0.2 mg/ml were added into agar. The agar plate without investigated samples was included as a bacterial growth control. The inoculum of 10^6 CFU/ml was applied to the agar plates with Steers replicator. Plates were incubated for 24 hrs in 37° C. under aerobic conditions. Yeast like fungi.”, “agar.” for “agar. Samples solutions with concentrations from of 3.5- 0.2 mg/ml were added into agar.”

[3] = In-vivo: tooth samples treated with peptide, 12 hours in the oral cavity, then acetic acid, Knoop hardness; design: species or system human; details: for B: Average initial hardness of the tooth surface (st. dev.): before treatment
Experimental: In another experiment, 126 sterilized tooth samples where treated with a variety of peptides, fixed to the device and positioned after the lower jaw in the oral cavity of 5 volunteers. The device remained in the oral cavity for a period of 12 hours after which the teeth where removed, cleaned and subjected to a drop of acetic acid (0.1N, 30 min., 37° C). Subsequently the acid was removed, the teeth where cleaned and the hardness was measured (Knoop method). The depth of penetration increased 8.82 μm, 5.40 μm, 5.32 μm and 3.77 μm respectively for teeth treated as blanco with 4.2% casein phosphopeptide e-polylysine copolymer, 7.5% phosvitin and with 4.2% bisphosphonylated e-polylysine. The p-values are respectively 0.000, 0.000 and 0.004 for casein phosphopeptide e-polylysine copolymer, bisphosphonylated e-polylysine and phosvitin.
Tooth samples have been cut in horizontal slices (thickness: 0.3 to 1 mm) with a Leitz 1600 tooth cutter with horizontal cutting blade; the slices are cut manually (with a bore) into small tooth samples that contain a small part of the original tooth surface. The tooth sample is positioned in a small plastic tube, that has been cut from a long plastic tube with 6 mm external diameter. The length of the tube is 3 to 6 mm. The inner part of the tube is filled with a polymer that hardens under light (Photoclearfil Bright; Kuraray). The tooth sample is positioned in the soft polymer inside the tube, in such a way that the original tooth surface is just surfacing above the tube. Finally the polymer is hardened with a light source. The tooth surface is polished with Struers silicon carbid paper (800-4000) and the hardness is measured 5 times on each of the samples under the Letiz Wetzlar microscope (weight on needle: 50 p). Tooth samples with a maximum average depth of penetration of 43 μm are retained for use in the oral cavity.
The tooth-samples are fixed to a device that has been described in the chapter “Description of the invention ( chapter: In-vivo experiments)” and the device is positioned in the oral cavity after the lower jaw.
A drop from a solution containing either, e-polylysine, CPP, bisphoshphonylated e-polylysine, casein phosphopeptide epsilon-polylysine copolymer or partially hydrolysed phosvitin has been positioned at the surface of tooth samples for a period of 30 minutes at 37 C.; the drop was removed and the procedure was repeated once more. All solutions contained also 3.1% CaCl2.2H2O and 1.7% KH2PO4 (except for the one containing e-polylysine).
The tooth surface was cleaned with a soft paper towel until it was visibly clean. Four such tooth samples where fixed to the device and located in the oral cavity behind the lower jaw. They resided in the oral cavity for a period of 12 hours (only to be removed during eating). Subsequently, they where removed, cleaned and the tooth surface was treated with a drop of acetic acid (0.1N, 30 min., 37° C.); the acid was removed, the tooth was washed with deionized water and the hardness was evaluated.
A: type of peptide ingredient in the solution (% on a w/w basis versus water). (*): the teeth where submerged (30 min.) in a saliva batch and dried afterwards on air, before they where treated with a solution that contained bisphosphonylated e-polylysine. B: Average initial hardness of the tooth surface; μm (st. dev.) C: Average hardness after treatment, after residing in the oral cavity and treatment with acid D: The average change in hardness (C−B) E: p-value (against blanco) of the Mann-Whitney statistical test F: the number of tooth samples that where treated with a specific formulation; hardness on each of the tooth samples was measured five times and an average value was calculated; most often 4 tooth samples per person; 5 volunteers participated to the experiment; the 132 tooth samples where randomized into groups (of 4 teeth) with the same average hardness value.

[4] = 4.2% w/w solution, 12 hours oral cavity, acetic acid 0.1N 30 min

Substance: casein phosphopeptide epsilon-polylysine copolymer [(CPP x elys)n]
- activity against anaerobes [1]: less effective
- activity against aerobes [2]: not active
- C: Average hardness after treatment, after residing in the oral cavity and treatment with acid [3, 4]: 46.21 (1.94) μm
- D: average change in hardness (C−B) [3, 4]: 5.40 μm
- D: average change in hardness (C−B) ([3]; 7.8% w/w solution): 2.41 μm
- C: Average hardness after treatment, after residing in the oral cavity and treatment with acid ([3]; 7.8% w/w solution, 12 hours oral cavity, acid): 42.92 (1.43) μm
- B: Average initial hardness of the tooth surface (st. dev.) ([3]; group for 4.2% solution): 40.81 (0.68) μm
- B: Average initial hardness of the tooth surface (st. dev.) ([3]; group for 7.8% solution): 40.51 (1.55) μm

Substance: bisphosphonylated epsilon-polylysine [bisphosphonylated e-polylysine]
- activity against anaerobes [1]: good activity
- activity against aerobes [2]: not active
- D: average change in hardness (C−B) ([3]; 4.2% solution (*): teeth submerged 30 min in saliva before treatment): 3.29 μm
- C: Average hardness after treatment, after residing in the oral cavity and treatment with acid ([3]; 4.2% solution (*): teeth submerged 30 min in saliva before treatment, 12 hours oral cavity, acid): 44.05 (2.92) μm
- C: Average hardness after treatment, after residing in the oral cavity and treatment with acid [3, 4]: 44.29 (2.08) μm
- D: average change in hardness (C−B) [3, 4]: 3.77 μm
- B: Average initial hardness of the tooth surface (st. dev.) ([3]; group for 4.2% solution (*)): 40.76 (0.73) μm
- B: Average initial hardness of the tooth surface (st. dev.) ([3]; group for 4.2% solution): 40.52 (0.62) μm

Substance: Epsilon-polylysine (elys; e-polylysine) [Product 6]
- anaerobes harvested from the oral cavity that are inhibited ([1]; at 0.2 to 0.4 mg/ml, 17 from 24 species): 71%
- mic-value (minimum inhibitory concentration) ([1]; gram-negative anaerobes, often, incl. Prevotella nigrescens, Porphyromonas gingivalis, Fusobacterium nucleatum): ≤ 200 µg/mL
- aerobes harvested from the oral cavity that are inhibited ([2]; at 0.2 to 0.4 mg/ml, 2 from 17): 12%
- C: Average hardness after treatment, after residing in the oral cavity and treatment with acid [3, 4]: 47.81 (3.67) μm
- D: average change in hardness (C−B) [3, 4]: 6.93 μm
- B: Average initial hardness of the tooth surface (st. dev.) ([3]; group for 4.2% solution): 40.88 (0.91) μm
